The values that follow come from US4092350A, “Alkanoic acid, process for its production and method of use thereof” (priority 1975, dated 1978).

Series [1] deals with Intraperitoneal Dye Leakage. The series is described as follows: Inhibition of Intraperitoneal Dye Leakage. The series is classed as in vivo, male Donryu rats. The conditions noted are these: Rattus norvegicus, 0.75 h, rats, oral. The method, then:
(§1) Inhibitory percentage was calculated as follows. [formula] (b) Inhibition of Intraperitoneal Dye Leakage
(§2) Five minutes thereafter, 0.2 ml. / 100 g. body weight of 3% acetic acid was injected intraperitoneally. The dye in the peritoneal exudation, sampled 45 minutes after the acetic acid injection, was subjected to the spectro-photometric estimation at 620 mμ. Inhibitory percentage was calculated as follows. [formula]

The subject of series [2] is Granuloma Formation. Briefly: Inhibition of Granuloma Formation by Granuloma Pouch Method. The series is classed as in vivo, male Wistar rats. Conditions: Rattus norvegicus, 144 h; for ED20: read-out: ED20, Inhibition of Granuloma Formation by Granuloma Pouch Method. As to the method: (§3) (c) Inhibition of Granuloma Formation by Gramuloma Pouch Method
(§4) Thereafter, the compounds were administered orally. Beginning the next day, the compounds were administered orally at 9:00 a.m. and 4:00 p.m. for 6 days. The day after final administration, the granuloma pouches were removed and weighed. Inhibitory percentage was calculated as follows: [formula] (d) Acute Toxicity

The next series in a line: in vivo. Conditions: rats, oral, 7-day observation. The method, then:
as §4
The compounds were administered orally in male Wistar rats weighing 200 ± 10 g. The rats were observed over a 7-day period.

For series [3], the system named is Carrageenin-Induced Paw Edema. The series is described as follows: Inhibition of Carrageenin-Induced Paw Edema. The series is classed as in vivo, male Donryu rats. Conditions: Rattus norvegicus, rats, oral; for ED40: 3 h. As to the method: (§5) (a) Inhibition of Carrageenin-Induced Paw Edema
(§6) Following the method of C. […] The volume of the paw was measured before and 3 hours after the carrageenin injection. The swelling index of the inflamed paw was calculated as follows. [formula]
as §1

Series [4] in a line: Inhibition of Granuloma Formation by Cotton Pellet Method. The series is classed as in vivo, male Donryu rats. The conditions noted are these: rat, in vivo; rats, oral; ratio of LD50 to ED20; read-out: LD50/ED20, Cotton Pellet Method (safety margin). As to the method: (§7) (e) Inhibition of Granuloma Formation by Cotton Pellet Method
(§8) Following the method of C. […] Thereafter, the compounds were administered orally. Beginning the next day, the compounds were administered orally at 9:00 a.m. and 4:00 p.m. for 3 days. The day after final administration, the pellets were removed, dried and weighed to determine the weight of the granuloma formed around the pellets. Inhibitory percentage was calculated as follows: [formula] (f) Analgesic Activity by Acetylcholine-Induced Writhing Method in Mice

Series [5] deals with Granuloma Formation. Described as above. The series is classed as in vivo, male Donryu rats. Conditions: Rattus norvegicus, 72 h; rats, oral, twice daily for 3 days. The method, then:
as §7, §8

Series [6] is described as follows: Inhibition of Intraperitoneal Dye Leakage. The conditions noted are these: rat, in vivo; rats, oral; ratio of LD50 to ED30; read-out: LD50/ED30, Intraperitoneal Dye Leakage (safety margin). The series is classed as in vivo, male Donryu rats. The method, then:
as §1, §2

In series [7] the test system is Acetylcholine-Induced Writhing. The series is described as follows: Analgesic Activity by Acetylcholine-Induced Writhing Method in Mice. The series is classed as in vivo, male SLC-ICR mice. The conditions noted are these: Mus musculus, oral, 60 minutes before acetylcholine. The method, then: Following the method of C. A. Winter, et al. (J. Pharmac. Exp., Ther., 141, 369 (1963)), in male Donryu rats weighing 130 ± 10 g., two sterilized cotton pellets weighing 35 ± 1 mg. respectively were embedded subcutaneously at the lateral abdomen aseptically. Thereafter, the compounds were administered orally. Beginning the next day, the compounds were administered orally at 9:00 a.m. and 4:00 p.m. for 3 days. The day after final administration, the pellets were removed, dried and weighed to determine the weight of the granuloma formed around the pellets. Inhibitory percentage was calculated as follows: [formula] (f) Analgesic Activity by Acetylcholine-Induced Writhing Method in Mice
Following the method of S. S. Adams (Arch. Int. Pharmacodyn., 178, 115 (1969)), in male SLC-ICR mice weighing 20 ± 1 g., the writhing response was caused by the intraperitoneal injection of 0.1 ml. / 10 g. body weight of 7.5 mg. / kg. acetylcholine dissolved in physiological saline. The test compounds were administered orally 60 minutes before the acetylcholine injection, after which the frequency of response was counted in each animal for 8 minutes. Inhibitory percentage was calculated as follows. [formula] Note; Compound A: 2-[4-(2-methyl-3-oxobutyl)phenyl]propionic acid, […]

A short description of series [8]: Inhibition of Granuloma Formation by Granuloma Pouch Method. The series is classed as in vivo, male Wistar rats. Conditions: rat, in vivo; rats, oral; ratio of LD50 to ED20; read-out: LD50/ED20, Granuloma Pouch Method (safety margin). As to the method: as §3, §4
Series [9] can be described thus: Inhibition of Carrageenin-Induced Paw Edema. Conditions: rat, in vivo; rats, oral; ratio of LD50 to ED40; read-out: LD50/ED40, Carrageenin-Induced Paw Edema (safety margin). The series is classed as in vivo, male Donryu rats. The method, then:
as §5, §6, §1
For orientation: In the carrageenan paw model, swelling and tenderness develop within hours.

[10] abbreviates: po, read-out: Inhibition of Granuloma Formation by Granuloma Pouch Method, Inhibition (%).

Like-named read-outs stand apart in the source and are kept apart here.

In general, inhibition refers to the relative decrease from the control value, in per cent. `CC(=O)C(C)Cc1ccc(C(C)C(=O)O)cc1` (centres unmarked) [Compound A, 2-[4-(2-methyl-3-oxobutyl)phenyl]propionic acid] displayed an inhibition at 2 mg/kg in series [1] (45 minutes after acetic acid) of 30.6%. 8 mg/kg produced 22.3% inhibition in the series with Granuloma Formation [2] (rats, oral, 8 mg/kg, twice daily for 6 days). In “in vivo” (250 mg/kg), the “Acute Toxicity, Died/Treated” value is 1/8. In [3] (3 hours after carrageenin), testing at 3 mg/kg gave an inhibition of 31.7%.
What is called ED50 is the dose at which the effect has come halfway, by size or by number of responders. A high value points to a need for a large dose. Broadly, the LD50 is the dose at which mortality reaches 50%. As to `CCC(Cc1ccc(C(C)C(=O)O)cc1)C(C)O` (centres unmarked) [Compound D, 2-[4-(2-ethyl-3-hydroxybutyl)phenyl]propionic acid], the selectivity ratio in [4] was found to be 400; in series [6], 426; in [8], 181; in series [9], 52.8. Also, the ED20 in the series on Granuloma Formation [5] amounted to 0.33 mg/kg; in the series on Granuloma Formation [2] (po) it was 0.73 mg/kg. This compound also registered an ED30 in [1] of 0.31 mg/kg. The same compound returned an inhibition at 0.5 mg/kg in series [1] (45 minutes after acetic acid) of 34.4%. For the same compound, the ED50 in series [7] came out at 2.7 mg/kg. Besides, the inhibition at 1 mg/kg in the series with Granuloma Formation [2] (setting [10]) came to 23.5%. The LD50 at 168 h in the series “in vivo” (rat, in vivo, read-out: Acute Toxicity LD50) came out at 132 mg/kg. The “Acute Toxicity, Died/Treated” value in “in vivo” (125 mg/kg) is 3/8. This compound gave an ED40 in [3] of 2.5 mg/kg. For the same compound, the inhibition at 2 mg/kg in series [3] (3 hours after carrageenin) turned out to be 38.1%.
In the case of `CCC(Cc1ccc(C(C)C(=O)O)cc1)C(C)=O` (centres unmarked) [Compound C, 2-[4-(2-ethyl-3-oxobutyl)phenyl]propionic acid], at 0.5 mg/kg the inhibition in [1] (45 minutes after acetic acid) was 28.2%. For the same compound, in the series on Granuloma Formation [2] (rats, oral, 1 mg/kg, twice daily for 6 days, read-out: Inhibition of Granuloma Formation by Granuloma Pouch Method, Inhibition (%)), the inhibition at 1 mg/kg is 22.7%. Also, the “Acute Toxicity, Died/Treated” value in the series “in vivo” (125 mg/kg) was 2/8. Moreover, in [3] (3 hours after carrageenin), the inhibition at 2 mg/kg is 35.2%.
As to `CC(C)Cc1ccc(C(C)C(=O)O)cc1` (centres unmarked) [Ibuprofen, reference compound], the ED20 in the series with Granuloma Formation [5] amounted to 22 mg/kg; in the series on Granuloma Formation [2] (po), 42 mg/kg. The compound further returned an ED30 in [1] of 17 mg/kg. The inhibition at 10 mg/kg in series [1] (10 mg/kg, 45 minutes after acetic acid) is 17.8%; in series [3] (10 mg/kg, 3 hours after carrageenin) it was 31.2%. In addition, the ED50 in series [7] was 4.7 mg/kg. The inhibition at 50 mg/kg in the series with Granuloma Formation [2] (setting [10]) was 21.1%. Further, the “Acute Toxicity, Died/Treated” value in the series “in vivo” (625 mg/kg) is reported as 3/8. For the same compound, the ED40 in series [3] is 16 mg/kg.
For the compound `CC(C(=O)O)c1ccc(CC(C)C(C)O)cc1` (centres unmarked) [Compound B, 2-[4-(2-methyl-3-hydroxybutyl)phenyl]propionic acid], the inhibition at 2 mg/kg in series [1] (45 minutes after acetic acid) is 35.3%. In addition, the inhibition at 6 mg/kg with Granuloma Formation [2] (rats, oral, 6 mg/kg, twice daily for 6 days) was found to be 24.2%. Moreover, the “Acute Toxicity, Died/Treated” value in the series “in vivo” (250 mg/kg) is 1/8. Moreover, testing at 3 mg/kg in series [3] (3 hours after carrageenin) gave an inhibition of 34.9%.
